“Also recorded” adds a separate entry of the source.
Experiments:
P. aeruginosa cultures [1] = assay: Bacterial-survival endpoint assay, viable-cell plate counts after 4 hr; assay type: cell-based, Pseudomonas aeruginosa; details: for lethality (viable-cell plate counts): anoxic conditions with 400 μM nitrate; for lethality (viable-cell plate counts) / sensitivity of cultures (viable-cell plate counts): 40 μg/ml tobramycin, 10 mM chlorate
Procedure: In aerobic-survival endpoint assays, overnight aerobic cultures were pelleted, washed twice with and resuspended in LB, and added to a 96-well microtiter plate at high cell density (optical density at 500 nm [OD500]˜3). Wells also contained sodium chlorate (final concentration, 10 mM), sodium chlorite (final concentration, 10 mM), tobramycin (final concentration, 40 μg ml^−1), or an equal volume (20 μl) of dH2O in untreated-control wells (200-μl total volume per well). Ninety-six-well plates were incubated at 37° C. with shaking at 250 rpm for 4 hr before viable cells on plates were counted. Anaerobic-survival endpoint assays were performed as described above, except […], […], and 96-well plates were incubated anaerobically at 33° C. for 4 hr and then removed from the glove box so that cultures could be serially diluted for viable-cell plate counts.
(§1) Viable-cell plate counts were performed by serially diluting samples in phosphate-buffered saline (PBS). Dilutions spanning 7 orders of magnitude were plated on LB agar plates as 10-μl drips. Plates were incubated at 37° C. for ˜20 h, and incubation continued at room temperature (72 hr of total incubation) to allow for the growth of slow-growing colonies. Colonies were counted daily, and numbers of CFU per milliliter were calculated at the end of the incubation period. All viable-cell plate counting was carried out under aerobic conditions.
High-density P. aeruginosa cultures (˜10^9CFU ml^−1) were incubated with and without drugs under oxic conditions, […], or anoxic conditions without nitrate (no terminal electron acceptor) for 4 h, after which viability was determined (FIG. 1).

[2] = Stability of concentrations in cell-free growth medium (ion chromatography); details: LB, 72 hr; 1 mM chlorate oxic, anoxic, anoxic with 40 mM nitrate; 40 mM nitrate anoxic plus 1 mM chlorate
Procedure: One millimolar chlorate concentrations were monitored in LB that was incubated for 72 hr under oxic conditions (filled circles), anoxic conditions (open circles), and anoxic conditions with 40 mM nitrate (open circles). Forty millimolar nitrate concentrations were monitored in LB medium that was incubated for 72 hr under anoxic conditions plus 1 mM chlorate (filled circles).
Culture samples were centrifuged at 16,000×g at room temperature for 10 min to pellet cells. Supernatants were diluted 1:10 in dH2O and added to 0.5-ml vials (Thermo Fisher Scientific catalog numbers 038010 and 038011). Nitrate and chlorate concentrations were quantified using the Dionex ICS 2000 ion chromatography system (Environmental Analysis Center, Caltech). Samples were loaded via a 15-μl sample loop onto an AS-19 separator (2- by 250-mm) column protected by an AG-19 guard (2 by 50 mm), maintained at 30° C. […] Anions were detected at neutral pH using an AERS 500 2-mm suppressor (Thermo Fisher Scientific) operated in eluent recycle mode with an applied current of 30 mA, and the conductivity detection cell was maintained at 35° C. […] Sodium chlorate and potassium nitrate standards were used to identify sample analytes via retention time and to generate standard curves for quantifying analyte concentrations.

[3] = system: P. aeruginosa aggregate biofilms; assay: Agar block biofilm assay (ABBA), LIVE/DEAD staining and confocal microscopy; assay type: cell-based, Pseudomonas aeruginosa; details: 6 hr treatment; for killing of cells in aggregates at depth (SYTO 9/propidium iodide) / killing of cells in middepth aggregates (SYTO 9/propidium iodide) / killing of cells in surface aggregates (SYTO 9/propidium iodide): 40 μg/ml tobramycin, 10 mM chlorate; for viability of cells at depths of >200 μm: tobramycin compared to untreated samples
Procedure: Overnight aerobic cultures were diluted to an OD500 of 0.001 in molten agar growth medium that had been cooled to 44° C. For all agar block biofilm assays (ABBAs), the growth medium used was LB with 5 mM KNO3 and 0.5% noble agar. A portion of the dilution (175 p.1) was added to chambered cover glass slides (Thermo Fisher Scientific number 155409), solidified at room temperature, and incubated at 37° C. for 12 hr in a humidified chamber. After incubation, cells that were not suspended in the agar were removed by adding 400 μl PBS to the top of each agar block and gently pipetting. Liquid was removed by inversion, and the wash was repeated. Aggregate cells were then treated by pipetting 125 μl of 24 mM sodium chlorate (final concentration, 10 mM), 125 μl of 96 μg ml^−1 tobramycin (final concentration, 40 μg ml^−1), or 62.5 μl of 48 mM chlorate and 62.5 μl of 192 μg ml^−1 tobramycin in combination (10 mM and 40μg m^−1 final concentrations, respectively) on the top of the agar block. All chlorate and tobramycin solutions were made in LB, and 125 μl LB was pipetted on the top of untreated control agar blocks. Treated and untreated samples were incubated at 37° C. in a humidified chamber, with shaking at 220 rpm for 6 hr. After incubation, samples were inverted to remove liquid, and cells were stained using a BacLight LIVE/DEAD bacterial viability staining kit (Thermo Fisher Scientific number L7012). One hundred twenty-five microliters of staining solution (1 μl 3.34 mM SYTO 9, 1 μl 20 mM propidium iodide, 123 μl dH2O) was added to each sample, and samples were incubated at room temperature on a VWR variable-speed rocker at the highest speed for 90 min before being imaged.
Before being imaged, ABBA samples were inverted to remove the staining solution, and 75 μl of a 1:50 dilution of 5-μm fluorescent beads (Spherotech; CFP-5045-2) was added to each sample. Excess liquid was removed by wicking, and beads were used to mark the surface of each sample. ABBA aggregates were imaged using a Leica TCS SPE confocal microscope with an ACS APO 0.3-numeric-aperture/10× objective. The agar surface was determined by visualizing fluorescent beads using a 405-nm solid-state laser for excitation, with data collected from 425 to 475 nm. LIVE/DEAD data were collected using a 488-nm solid-state laser for excitation, with emission collected at 510 to 550 nm and 610 to 650 nm for SYTO 9 and propidium iodide, respectively. Images were collected from three distinct locations near the center of each well as 500-μm z-stacks (50 slices total, 10-μm step size). z-stacks were collected in 8-bit mode with a scan format of 512 by 512 pixels (for quantification) or 1,024 by 1,024 pixels (for representative images) and line averaging of 2. Representative images were chosen from 6 independent experiments.
To quantify ABBA staining, images were loaded in Fiji (92), and background was subtracted from each image using the rolling ball method with a radius of 100 pixels. A threshold was applied to all images to exclude pixels with a value of <20, and total pixel intensity for both stains was determined for each image using the RawIntDen value in the Integrated Density measurement function. The proportion of sensitive cells was determined for each image (at each depth) by dividing the propidium iodide integrated density by the sum of the propidium iodide- and SYTO 9-integrated densities. ABBA staining quantifications are averages from 6 independent experiments (3 technical replicates per independent experiment).
In the ABBA system, an overnight culture is diluted into 0.5% molten agar medium, allowed to solidify, and incubated overnight at 37° C. Agar-suspended cells grow as aggregates, which develop into metabolically distinct populations at different spatial scales.

[4] = system: P. aeruginosa narG transposon mutant; assay: Anaerobic adaptation and survival, narG mutant; assay type: cell-based, Pseudomonas aeruginosa; details: 1 mM chlorate, 72 hr anoxic
Procedure: Overnight cultures were grown aerobically in LB with 40 mM KNO3, 100 mM L-arabinose, 50 μg ml^−1 gentamicin (for strains containing pMQ72-derived plasmids), and 50 μg ml^−1 kanamycin (for transposon insertion strains). Overnight cultures were pelleted, washed twice in LB with 100 mM L-arabinose to remove antibiotics, and resuspended in LB with 100 mM L-arabinose with or without 1 mM sodium chlorate at high cell density (OD500˜3). Two hundred microliters of resuspended culture was added to 96-well microtiter plates, and the plates were moved to the anaerobic glove box for cells to adapt to the anaerobic lifestyle. After a 72-hr incubation at 33° C., 96-well plates were removed from the anaerobic glove box and viable cells on plates were counted to calculate numbers of CFU per milliliter (described above). Percent survival was calculated for each strain by dividing CFU-permilliliter values from cultures containing chlorate by the average CFU-per-milliliter value from control cultures lacking chlorate and multiplying by 100. CFU-per-milliliter values of untreated control cultures were similar across strains, ranging from 1.0×10^9 to 2.2×10^9. The percentage of chlorate remaining after the 72-hr incubation was determined for each strain by dividing the final chlorate concentration in each culture by the initial chlorate concentration in the medium and multiplying by 100. […]

P. aeruginosa cultures [5] = assay: 72 hr survival assay with viable-cell counts and chlorate quantification; assay type: cell-based, Pseudomonas aeruginosa; details: 1 mM chlorate
Procedure: as §1

[6] = system: P. aeruginosa ΔlasR mutant; assay: 72 hr anoxic survival assay with viable-cell counts and chlorate quantification, ΔlasR; assay type: cell-based, Pseudomonas aeruginosa; details: anoxic conditions, 1 mM chlorate
Procedure: as §1

[7] = system: P. aeruginosa ΔlasR ΔnarGHJI strain; assay: Anaerobic adaptation and survival, ΔlasR ΔnarGHJI; assay type: cell-based, Pseudomonas aeruginosa; details: 1 mM chlorate, 72 hr anoxic
Procedure: The narGHJI genes were deleted in WT PA14 and the isogenic ΔlasR background. The region upstream of narG was amplified using primers 5′-[…]-3′ (SEQ ID NO: 11) and 5′-[…]-3′ (SEQ ID NO: 12), and the region downstream of narI was amplified using primers 5′-[…]-3′ (SEQ ID NO: 13) and 5′-[…]-3′ (SEQ ID NO: 14). These fragments were cloned into HindIII- and SacI-digested pMQ30 (89) via Gibson cloning. […]
Overnight cultures were grown aerobically in LB with 40 mM KNO3, 100 mM L-arabinose, 50 μg ml^−1 gentamicin (for strains containing pMQ72-derived plasmids), and 50 μg ml^−1 kanamycin (for transposon insertion strains). […] After a 72-hr incubation at 33° C., 96-well plates were removed from the anaerobic glove box and viable cells on plates were counted to calculate numbers of CFU per milliliter (described above). Percent survival was calculated for each strain by dividing CFU-permilliliter values from cultures containing chlorate by the average CFU-per-milliliter value from control cultures lacking chlorate and multiplying by 100. […] The percentage of chlorate remaining after the 72-hr incubation was determined for each strain by dividing the final chlorate concentration in each culture by the initial chlorate concentration in the medium and multiplying by 100.

[8] = anoxic conditions with 40 mM nitrate
[9] = anoxic conditions without nitrate

| Compound | sensitivity of anoxic cultures compared with oxic cultures (P. aeruginosa cultures [1]; 10 mM chlorite) | stability of concentration in cell-free growth medium (abiotic controls) [2] | killing of cells in aggregates at depth (SYTO 9/propidium iodide) [3] | killing of cells in middepth aggregates (SYTO 9/propidium iodide) [3] | killing of cells in surface aggregates (SYTO 9/propidium iodide) [3] | viability of cells at depths of >200 μm [3] | lethality (viable-cell plate counts) (P. aeruginosa cultures [1]) | sensitivity of cultures (viable-cell plate counts) (P. aeruginosa cultures [1]; [8]) | sensitivity of cultures (viable-cell plate counts) (P. aeruginosa cultures [1]; [9]) | sensitivity of cultures (viable-cell plate counts) (P. aeruginosa cultures [1]; oxic conditions) | chlorate sensitivity (viable-cell counts) ([4]; narG mutant complemented with narGHJI genes) | chlorate sensitivity (viable-cell counts) ([4]; narG mutant) | chlorate-associated cell death (P. aeruginosa cultures [5]; anoxic cultures with 40 mM nitrate) | chlorate-associated cell death (P. aeruginosa cultures [5]; oxic cultures) | viable-cell counts in ΔlasR cultures lower than WT at end of experiment [6] [fold] | chlorate sensitivity (percent survival) [7] |
| --- | --- | --- | --- | --- | --- | --- | --- | --- | --- | --- | --- | --- | --- | --- | --- | --- |
| sodium chlorite [reference compound] | much more sensitive |  |  |  |  |  |  |  |  |  |  |  |  |  |  |  |
| O=[N+]([O-])[O-].[K+] [nitrate, KNO3] |  | stable |  |  |  |  |  |  |  |  |  |  |  |  |  |  |
| NC[C@H]1O[C@H](O[C@H]2[C@H](O)[C@@H](O[C@H]3O[C@H](CO)[C@@H](O)[C@H](N)[C@H]3O)[C@H](N)C[C@@H]2N)[C@H](N)C[C@@H]1O [tobramycin, reference compound] |  |  | tolerant | cells on the exterior being killed and cells on the interior staying alive | killed | increased survival | indistinguishable from that in cultures lacking nitrate | sensitive | tolerant | sensitive |  |  |  |  |  |  |
| [O-][Cl+2]([O-])O [chlorate, sodium chlorate] |  | stable | killed | the exterior of middepth aggregates are chlorate tolerant, whereas aggregates at depth and the interior of middepth aggregates are killed | tolerant | most cells at depths of >200 μm are dead | indistinguishable from that in cultures lacking nitrate | does not kill; also recorded: tolerant | sensitive; also recorded: kills | does not kill | restores chlorate sensitivity | resistant | does not occur until nitrate is consumed | no chlorate-associated cell death | 100 | chlorate tolerant |
